# Data reported in ChEMBL document CHEMBL1137509, “Taxodistines A and B, abietane-type diterpenes from Taxodium distichum” (Bioorg Med Chem Lett, 2007).
# The source made the active and inactive calls. No cut-off for these calls is given here.
# Experiments:
# Tubulin (Homo sapiens) [1] = target: T1, Tubulin (Homo sapiens) (UniProt P68371+Q9H4B7+P0DPH7+P68366+Q13509+Q71U36+P04350+Q3ZCM7+P07437+P68363+Q9BQE3+Q6PEY2+Q13885+Q9BVA1+Q9BUF5); assay: Inhibition of tubulin polymerization at 100 uM after 30 mins; assay type: protein-complex assay
# P388 = assay: Cytotoxicity against mouse P388 cells; assay type: functional, cell-based
# Tubulin (Homo sapiens) [2] = target: T1, Tubulin (Homo sapiens); assay: Inhibition of tubulin polymerization at 200 uM after 30 mins; assay type: protein-complex assay
Compound,inhibition (Tubulin (Homo sapiens) [1]) [%],IC50 (P388) [µg/mL],Activity (Tubulin (Homo sapiens) [2])
CC(C)C1=CC2=CC(=O)[C@H]3C(C)(C)CCC[C@]3(C)C2=C(O)C1=O,45,–,–
CO[C@@H]1c2cc(C(C)C)c(O)c(O)c2[C@@]2(C)CCCC(C)(C)[C@@H]2[C@H]1O [TAXODISTINE A],–,0.43,inactive
CO[C@@H]1c2cc(C(C)C)c(O)cc2[C@@]2(C)CCCC(C)(C)[C@@H]2[C@H]1O [TAXODISTINE B],90,6.5,–
